Source: patent publication US8735593B2, “Aminopyridines useful as inhibitors of protein kinases” (Vertex Pharmaceuticals Incorporated, priority 2007, dated 2014)
Like-named read-outs stand apart in the source and are kept apart here.

Tests used:
[1] = tested on: rat brains after transient middle cerebral artery occlusion (MCAO); settings: cited from earlier work
[2] = tested on: amyloid-β peptide tissue levels; settings: mice over-expressing APP, treated over a three-week period; cited from earlier work
[3] = target: GSK-3β (AA 1-420) (Homo sapiens (Human), UniProt P49841); assay: GSK-3 Inhibition Assay (standard coupled enzyme system); format: biochemical; settings: 20 μM ATP, 300 μM peptide, 20 nM GSK-3β, 30° C.
Description: Compounds of the present invention were screened for their ability to inhibit GSK-3β (AA 1-420) activity using a standard coupled enzyme system (Fox et al., Protein Sci. 1998, 7, 2249). Reactions were carried out in a solution containing 100 mM HEPES (pH 7.5), 10 mM MgCl2, 25 mM NaCl, 300 μM NADH, 1 mM DTT and 1.5% DMSO. Final substrate concentrations in the assay were 20 μM ATP (Sigma Chemicals, St Louis, Mo.) and 300 μM peptide (American Peptide, Sunnyvale, Calif.). Reactions were carried out at 30° C. and 20 nM GSK-3β. Final concentrations of the components of the coupled enzyme system were 2.5 mM phosphoenolpyruvate, 300 μM NADH, 30 μg/ml pyruvate kinase and 10 μg/ml lactate dehydrogenase.
An assay stock buffer solution was prepared containing all of the reagents listed above with the exception of ATP and the test compound of the present invention. The assay stock buffer solution (175 μl) was incubated in a 96 well plate with 5 μl of the test compound of the present invention at final concentrations spanning 0.002 μM to 30 μM at 30° C. for 10 min. Typically, a 12-point titration was conducted by preparing serial dilutions (from 10 mM compound stocks) with DMSO of the test compounds of the present invention in daughter plates. The reaction was initiated by the addition of 20 μl of ATP (final concentration 20 μM). Rates of reaction were obtained using a Molecular Devices Spectramax plate reader (Sunnyvale, Calif.) over 10 min at 30° C. The Ki values were determined from the rate data as a function of inhibitor concentration.

[4] = target: GSK3α TYR 279 (Homo sapiens (Human), UniProt P49840); assay: GSK-3α p-TYR inhibition assay, western blotting of Jurkat cells; format: cell-based; settings: compound incubated o/n, read-out: GSK3a pTYR 279: IC50
Description: (§1) Compounds are screened for their ability to inhibit the phosphorylation of tyrosine (TYR) residues through the use of western blotting of Jurkat cells dosed with the compounds. The phosphorylation of the specific TYR residues tested are GSK3α TYR 279 and GSK3β TYR 216.
(§2) Jurkat cells are seeded at a density of 2×10^5 cells/well in a 12 well dish in starvation media (RPMI+1% FBS+P/S). Following starvation for 16 hours, the compound is dosed into each well at a final DMSO concentration of 0.3% and cells are incubated o/n at 37° C. 5% CO2. The next day, cells are spun down at 1500 rpm, washed with PBS, and lysed in 100 uL Laemli sample buffer with β-mercaptoethanol.
(§3) 15 microliters (uL) of cell lysates are loaded onto a 10% tris-glycine gel and run at 120 v for 2 hours or until dye front runs off of the gel. The protein is then transferred onto a PVDF membrane at 100 v for 60 min. PBST (PBS containing 0.1% Tween 20, such as 1 ml Tween per 1 L of PBS) is then made up and used for all washes and antibody incubations. The blot is blocked in 5% nonfat milk PBST for one hour.
(§4) The primary antibody (GSK-3α/β pTYR 279/216 at 1:1000 dilution Upstate cat#05-413) is then added in 5%-nonfat milk PBST overnight at 4° C. with gentle rocking. The blot is then washed in PBST for 5 min. This is then repeated 4 times. A secondary anti-mouse-HRP conjugated antibody (1:5000 dilution) is added for 60 min in 5% milk PBST. The blot is then washed in PBST for 5 min. This is also repeated 4 times. 3.0 mL of the developing solution (ECL plus Western Blotting Detection System from Amersham/GE cat# RPN2132) is made and then added. The solution is swirled over the blot for ˜30 sec. The blot is then developed using CL-Xposure clear blue X-ray film. GAPDH expression level is used as a loading control, (GAPDH antibody: santa cruz 25-778) at 1:10000 dilution.
(§5) For determination of GSK-3α and GSK-3β pTYR IC50, the density of the respective bands for each protein at specific compound concentration is compared to a no compound DMSO treated control cell sample present on each exposure. IC50 numbers are defined as the concentration of compound in which the density of the GSK-3α or GSK-3β band is 50% of the no compound control.

[5] = target: GSK3β TYR 216 (Homo sapiens (Human), UniProt P49841); assay: GSK3β p-TYR inhibition assay, western blotting of Jurkat cells; format: cell-based; settings: compound incubated o/n, read-out: GSK3b pTYR 216: IC50
Description: as §1, §2, §3, §4, §5

[6] = tested on: β-catenin dependent TCF/LEF transcriptional activity; assay: β-Catenin stabilization protocol, β-lactamase reporter assay in Jurkat cells; format: cell-based; settings: Homo sapiens, 460/530 ratio 50% of the maximum effect, read-out: Beta Catenin IC50
Text: GSK-3 phosphorylation of β-catenin targets it to the proteosome for degradation. Inhibition of GSK-3 results in accumulation of β-catenin in the cytosol of cells which through interaction with the transcription factor TCF/LEF translocates to the nucleus and drives the transcription of Wnt-dependent genes. The assay is designed to determine the level of β-catenin dependent TCF/LEF transcriptional activity in a quantitative manner through the use of a β-lactamase reporter assay in Jurkat cells dosed with a compound.
Jurkat β-catenin cells are starved overnight in assay media (1% FBS, 1× Penstrep, RPMI) in the flask. The next day Jurkat β-catenin cells are seeded in 96 well flat bottom plates at a density of 50,000 cells/well in assay media in a volume of 100 ul. The compound is added to the well at a final DMSO concentration of 0.75% and incubated at 37° C. o/n. The next day, 20 uL of 6×CCF4 dye is added to the wells and incubated at room temperature for 1-2 hours. Plates are read on the Cytofluor 4000 series multiwell plate reader and the 460/530 ratio is determined. The GSK-3 IC50 for induction of β-catenin is determined by plotting the 460/530 ratio against the concentration of compound (Log scale) and using the equation of the slope to calculate the point at which the ratio is 50% of the maximum effect.

[7] = read-out: Ki value, inhibition of GSK-3
[8] = read-out: Ki value, inhibition of GSK-3 (upper bound)

Sequence of GSK3α TYR 279 (P49840 whole entry): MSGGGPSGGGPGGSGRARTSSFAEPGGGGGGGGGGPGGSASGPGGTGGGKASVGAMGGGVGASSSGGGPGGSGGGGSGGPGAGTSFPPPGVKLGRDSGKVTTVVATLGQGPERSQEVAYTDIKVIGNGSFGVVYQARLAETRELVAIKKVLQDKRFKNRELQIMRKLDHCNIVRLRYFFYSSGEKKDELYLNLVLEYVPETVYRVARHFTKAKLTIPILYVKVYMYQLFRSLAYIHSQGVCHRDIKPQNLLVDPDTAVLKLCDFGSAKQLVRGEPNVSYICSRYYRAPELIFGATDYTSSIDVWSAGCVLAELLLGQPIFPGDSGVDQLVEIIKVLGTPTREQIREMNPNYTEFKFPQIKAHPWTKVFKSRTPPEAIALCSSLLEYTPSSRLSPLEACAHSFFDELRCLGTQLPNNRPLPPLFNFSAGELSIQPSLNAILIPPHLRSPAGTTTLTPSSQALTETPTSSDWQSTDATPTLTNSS
Sequence of GSK3β TYR 216 (P49841 whole entry): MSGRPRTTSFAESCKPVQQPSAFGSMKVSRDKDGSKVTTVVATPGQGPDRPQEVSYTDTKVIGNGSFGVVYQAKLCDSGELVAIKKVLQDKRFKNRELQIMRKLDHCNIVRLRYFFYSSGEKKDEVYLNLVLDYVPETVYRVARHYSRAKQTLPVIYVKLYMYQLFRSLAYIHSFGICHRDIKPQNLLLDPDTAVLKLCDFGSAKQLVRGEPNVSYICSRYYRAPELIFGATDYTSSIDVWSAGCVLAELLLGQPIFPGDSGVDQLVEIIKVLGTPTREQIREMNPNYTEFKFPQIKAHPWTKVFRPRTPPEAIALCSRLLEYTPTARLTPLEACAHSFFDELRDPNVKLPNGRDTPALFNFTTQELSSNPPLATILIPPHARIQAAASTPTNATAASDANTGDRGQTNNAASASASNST
Sequence of GSK-3β (AA 1-420) (P49841 whole entry, species assumed, the tested form may be a part): as the sequence (P49841 whole entry) above

Row | Ki [3, 7] [nM] | IC50 [4] [nM] | IC50 [5] [nM] | IC50 [6] [nM] | Ki [3, 8] [nM] | Compound | infarct size [1] | decrease in amyloid-β peptide tissue levels [2] [%]
1 | ≤ 10 | 10 | 200 | > 10000 | – | Cc1cc(Nc2n[nH]c3ncc(F)cc23)nc(-c2ccccc2Cl)c1C [Compound I-2] | – | –
2 | > 10 | 3 | 50 | 2080 | ≤ 1000 | Fc1cnc2[nH]nc(Nc3cc(C(F)(F)F)cc(-c4ccccc4Cl)n3)c2c1 [Compound I-1, N-(6-(2-chlorophenyl)-4-(trifluoromethyl)pyridin-2-yl)-5-fluoro-1H-pyrazolo[3,4-b]pyridin-3-amine] | – | –
3 | > 10 | – | – | 1300 | ≤ 1000 | Cc1cc(Nc2ncc(C)s2)nc(-c2ccccc2Cl)c1 [Compound I-6] | – | –
4 | > 10 | 30 | 300 | – | ≤ 1000 | Cc1cc(-c2ccccc2Cl)nc(Nc2n[nH]c3ncc(F)cc23)c1C [Compound I-4] | – | –

Continued, compound first:

Row | Compound | Ki [3, 7] [nM] | IC50 [4] [nM] | IC50 [5] [nM] | IC50 [6] [nM] | Ki [3, 8] [nM] | infarct size [1] | decrease in amyloid-β peptide tissue levels [2] [%]
5 | IGF-1: insulin growth factor-1, a known GSK-3 inhibitor | – | – | – | – | – | reduced infarct size | –
6 | [Li] [lithium] | – | – | – | – | – | – | > 50
7 | Cc1cc(Nc2n[nH]c3ncc(F)cc23)nc(-c2ccccc2Cl)c1 [Compound I-3] | ≤ 10 | 2 | 30 | 2700 | – | – | –
8 | Cc1cc(Nc2n[nH]c3ncc(F)cc23)nc(-c2ccccc2)c1C [Compound I-5] | ≤ 10 | 0.6 | 20 | 1100 | – | – | –
